From patent publication EP3165218A1, “WATER DISPERSIBLE GRANULATES CONTAINING OXIDIZED OR REDUCED FORMS OF COENZYME Q10” (INDENA S.p.A., priority 2015, dated 2017)

Test: Water dispersability, visual evaluation
Format: physicochemical
Conditions: quantity corresponding to 50 mg of Coenzyme Q10 in about 40 ml of tap water at room temperature; evaluated visually
Procedure: The water dispersability of the granulate of the invention was evaluated visually in comparison with unformulated Coenzyme Q10 administered as crystal powder. A quantity of the granulate of the invention corresponding to 50 mg of Coenzyme Q10 was dispersed in about 40 ml of tap water at room temperature. The product formed a very fine and homogeneous cloudy dispersion under mild agitation and no precipitation occurred.

Structure (SMILES): COC1=C(OC)C(=O)C(C/C=C(\C)CC/C=C(\C)CC/C=C(\C)CC/C=C(\C)CC/C=C(\C)CC/C=C(\C)CC/C=C(\C)CC/C=C(\C)CC/C=C(\C)CCC=C(C)C)=C(C)C1=O [crystalline Coenzyme Q10, Coenzyme Q10]
- water dispersability: the powder remained on the surface of water
